Assay results taken from PMC6054100, “Exploring the chemical space of the lysine-binding pocket of the first kringle domain of hepatocyte growth factor/scatter factor (HGF/SF) yields a new class of inhibitors of HGF/SF-MET binding” (Chemical Science, 2015).

Tests used:
NK1 = NK1 (Homo sapiens, UniProt P14210); test: SPR fragment library screening against NK1; type: binding; parameters: made in house; host or cells: Pichia pastoris; settings: for SPR response: normalised relative value against NK1
Description: Supplementary Materials and Methods
Fragment library screening and data analysis
Met567 (soluble truncated f ragment of the MET ectodomain, residues 25- 567), NK1 and t he SPH domain were immobilized on CM5 chips by amine coupling. NK1 was diluted into 10 m M phosphate pH 7.0 and the SPH domain into 10 mM acetate pH 5.5 to a final concentration of 2.5 μM and 1 μM, respectively, for coupling. The immobilization wizard within the Biacore T100 software was set to “aim for immobiliz ed level” of 8000 RU to achieve complete saturation of the chip surface.
W ith minor deviations, the procedure and conditions outlined below were used f or a ll screening s of an in-house fragment library of 1338 members against individual target proteins. The running buffer was PBS pH 7.4, 0.05% Tween 20, 0.25% DMSO (1% DMSO for Met567). Fragments were stored as 100 mM stock solutions in DMSO. Prior to screening, fragment samples were diluted to 500 μM (1 mM f or Met567) in running buffer.
Screening was performed in 96- we ll plates at a flow rate of 30 μl min-1 with 1 min sample injection f ollowed by dissociation f or 1 min and surf ace regeneration using 1 M NaCl f or 30 […]
post-regeneration baseline exceeded the pre- sample baseline by more than 10 RU, a second regeneration cycle with 50% ethylene glycol was used. In order to be able to correct for small variations in DMSO concentration between samples, eight solvent samples ranging from 0.012 to 1.5% DMSO were injected every 40th cycle. To monitor the binding capacity of the NK1, SPH and Met567 surfaces throughout the screening, injections of 500 μM HEPES (NK1), 0.25 μM Met567 (SPH) and 0.2 μM NK1 and 1% DMSO (Met567) were carried out every 40th cycle. The flow cell temperature was 25°C. NK1 and the SPH domain were immobilized on the same chip (channels 2 and 3 respectively) and were theref ore screened in parallel. Met567 was screened separately and results are published in an accompanying paper (W in t er et al. 2015, in revision).
For data analysis, fir st, all responses were reference and solvent corrected. 1 Next, equilibrium binding for every fragment was determined and hits established by applying several filters: sensorgram shape, upper and lower threshold. Typical sensorgrams from fragment screening show “square curves” in SPR due to the fast on and off rates and fragments not showing this response were discarded from further analysis. Binding levels are represented as response units (RU) but the SPR signal is a convolution of multiple parameters including target coupling density, target -binding activity, target molecular weight and molecular weight of each injected fragment. To be able to identif y hits accurately and to be able to compare responses between different plates and targets, data were normalised against these factors. First the theoretical maximum response for each fragment was calculated using equation 1:
RRmmm = CCCCCCCC ddCdCdd× MMffmCmdCd (Equation 1)
This RUmax value diff ers for each protein target because it depends on the molecular weight of the protein and the amount of protein immobilized on the chip (coupling density). The RUmax was then used to calculate the normalised relative SPR response:
NNNNNNNNNN NNNNr NrN SSR NNNrNrNN = RRcppppcppc× 100% (Equation 2) […]
fragment should cause upon binding. 100% response would be 1:1 binding wit h levels above 100% implying over-stoichiometric binding. […]
Fragment library screening to identify small molecule binders

[1] = tested on: MET downstream signalling (Erk 1/2, Akt) in Vero cells; test: MET, Erk1/2 and Akt phosphorylation assay in NK1-stimulated Vero cells (Western blot); type: cell-based; settings: Vero cells stimulated with NK1; compound 1 mM (lane 5), 0.1% DMSO
Description: We evaluated the effect of piperazine-like compounds and MB605 on Vero cells by assessing MET, Erk 1/2 and Akt phosphorylation in response to stimulation using […] NK1. MB605 was dissolved in DMSO, which limited the range of concentrations tested to ≤1 mM in order to avoid solvent effects on cell function/viability. The water-soluble piperazine-like compounds, in contrast, could be tested at concentrations up to 100 mM.
Fig. 6 Biological activity of the piperazine-like compounds and MB605. (a–e) Vero cells expressing the receptor endogenously on their cell surface were stimulated with HGF/SF or NK1 and phosphorylation of MET and downstream targets Akt and Erk1/2 was analysed. Piperazine-like compounds HEPES (a), (H)EPPS (b), MES (c), MOPS (d) and CAPS (e) were tested at 100 mM (lanes 4), 10 mM (lanes 5), 1 mM (lanes 6) and 100 μM (lanes 7) concentration in the presence of 1 nM NK1. To control for activating or inhibiting effects of the compounds independently of MET, piperazine-like compounds were tested on cells at 100 mM without stimulation by NK1 (lanes 3). Biological activity of MB605 (f) was investigated at 1 mM (lane 5), 100 μM (lane 6) and 10 μM (lane 7) in the presence of a constant concentration of DMSO (0.1%). A solvent control (0.1% DMSO, lane 3) was included in order to account for the effect of DMSO on the cells. A positive control (1 nM NK1 in the presence of 0.1% DMSO) is shown in lane 4. In all experiments, un-stimulated cells served as negative control (lanes 1) while cells stimulated with 1 nM NK1 served as positive control (lanes 2).
The ability of MB605 and the piperazine-like compounds to inhibit MET, Erk and Akt phosphorylation in the presence of NK1 was tested using mammalian Vero cells as described by Ferraris et al.[47] and further details are given in the ESI ^† section of the manuscript. […]
For MET, Erk1/2 and Akt phosphorylation assays, Vero cells were seeded at 2.1 × 10^5 cells we ll -1 (2 ml we ll -1) in 6-well plates and grown to 90% conf luence in 10% FCS/DMEM media and then switched to serum-free medium (to avoid any growth f actors present in the serum).
24 hours post starvation the cells were stimulated for 5 min at 37°C with each individual piperazine -like compounds as well as with NK1 (1 nM) pre-incubated with different concentrations of the piperazine- like compounds (100 mM, 10 mM, 1 mM and 100 μM) or MB605 (1 mM, 100 μM and 10 μM). Stimulations with either 0. 1% DMS O or 1 nM of NK1 […]
solution were used as a negative and a positive control, respectively. The cells were then washed in PBS buffer, lysed on ice f or 30 min and frozen at -80 °C until further analysis. For

Chain of NK1 (P14210 32-210 isoform P14210-6 limits assumed): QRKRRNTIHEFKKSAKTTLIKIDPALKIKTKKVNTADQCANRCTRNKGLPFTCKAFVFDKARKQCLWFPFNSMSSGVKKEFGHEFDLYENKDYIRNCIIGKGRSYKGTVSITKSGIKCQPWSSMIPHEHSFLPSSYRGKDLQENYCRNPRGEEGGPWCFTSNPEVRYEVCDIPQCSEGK

## O=C(O)CCc1ccco1 [MB605]
NK1; based on fragment screening, rank among the 71 NK1 hits (ESI Tables S3-S7)
  Ranking order: 1
NK1; fragments 500 μM (ESI Tables S3-S7)
  SPR response: 215%
NK1; initial fragment screening, fragments 500 μM (Table 3)
  SPR response: 215%
[1]
  Activity on NK1-induced MET, Erk 1/2 and Akt phosphorylation: active
